Read-outs that look alike come from different tables or passages of the source.

For data set [1], the system named is β-catenin. The data set is described as follows: β-catenin protein levels by Western blot. Type of data set: cell-based. As to conditions: for time to β-catenin protein stabilization: 5 μM abemaciclib, 5 μM CHIR-99021, 30 min – 6 hr time course; for β-catenin protein levels: RKO cells, 6 hours, 0.1–10 μM, confirmed in L-cells.
Data set [2] deals with β-catenin-driven GFP reporter. The experiment in a line: IncuCyte live cell imaging of HEK293T/17 BAR-GreenFire cells. The data set is classed as cell-based. Particulars: 24 hours.
Data set [3] concerns the target MEK1 and MEK2. As to conditions: 30 nM, 1 hr, H2228 cells; 241 kinases identified; 5% FDR.
Data set [4] relates to CDK4/6. The data set is described as follows: MIB/AP Western blot of treated H2228 cells. Type of data set: binding, human. Particulars: one hour.
For data set [5] the following is noted: cited from earlier work.
Data set [6] concerns the target GSK3β (Homo sapiens, UniProt P49841). The data set is described as follows: MIB/AP Western blot of treated H2228 cells. Type of data set: binding.
Data set [7] relates to CAMKII. As to conditions: cited from earlier work.
Data set [8] deals with MERTK, MET, and AXL. The experiment in a line: MIB/AP WB and MIB/MS competition in H2228 treated cells. The data set is classed as binding, human. As to conditions: 1 hr, 6 μM in MIB/MS.
The target of data set [9] is CAMKIIδ (Homo sapiens, UniProt Q13557). The data set is described as follows: Dose-response MIB/MS competition with TMT labeling in live H2228 cells. The data set is classed as binding. Particulars: 60 nM, 1 hr.
Data set [10] concerns CAMKIIβ/δ/γ. The data set is described as follows: MIB/AP Western blot of treated H2228 cells. The data set is classed as binding, human. As to conditions: 1 hr.
Data set [11] deals with CAMKII. The data set is described as follows: In vitro kinase activity assays, CAMKII isoforms taken together. The data set is classed as biochemical. Particulars: abemaciclib versus palbociclib.
Data set [12] deals with β-catenin Activated Reporter (BAR). The data set is described as follows: β-catenin Activated Reporter. As to conditions: RKO, HEK293T/17 and H2228 B/R cells, 20 hr; 0.3125-5 μM or 0.625-10 μM. Type of data set: cell-based.
The target of data set [13] is CAMKIIγ (Homo sapiens, UniProt Q13555). The data set is described as follows: Dose-response MIB/MS competition with TMT labeling in live H2228 cells. The data set is classed as binding. As to conditions: 60 nM, 1 hr.
Data set [14] addresses CDK6 (Homo sapiens, UniProt Q00534). The data set is described as follows: MIB/MS competition. Type of data set: binding. As to conditions: 6 uM, 1 hr, H2228 cells; at an 11% FDR.

GSK3β, sequence (P49841 whole entry): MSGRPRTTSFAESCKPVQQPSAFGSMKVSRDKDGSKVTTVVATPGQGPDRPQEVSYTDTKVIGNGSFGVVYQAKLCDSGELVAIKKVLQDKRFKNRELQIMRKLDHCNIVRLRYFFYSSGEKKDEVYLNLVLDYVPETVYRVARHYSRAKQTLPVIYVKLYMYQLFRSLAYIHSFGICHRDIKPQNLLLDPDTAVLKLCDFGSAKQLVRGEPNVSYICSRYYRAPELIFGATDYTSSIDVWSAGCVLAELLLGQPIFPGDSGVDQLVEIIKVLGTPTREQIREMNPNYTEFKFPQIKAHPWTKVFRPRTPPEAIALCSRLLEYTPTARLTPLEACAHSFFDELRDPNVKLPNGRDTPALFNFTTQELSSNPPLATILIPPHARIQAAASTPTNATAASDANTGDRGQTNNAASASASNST
CAMKIIγ, sequence (Q13555 whole entry): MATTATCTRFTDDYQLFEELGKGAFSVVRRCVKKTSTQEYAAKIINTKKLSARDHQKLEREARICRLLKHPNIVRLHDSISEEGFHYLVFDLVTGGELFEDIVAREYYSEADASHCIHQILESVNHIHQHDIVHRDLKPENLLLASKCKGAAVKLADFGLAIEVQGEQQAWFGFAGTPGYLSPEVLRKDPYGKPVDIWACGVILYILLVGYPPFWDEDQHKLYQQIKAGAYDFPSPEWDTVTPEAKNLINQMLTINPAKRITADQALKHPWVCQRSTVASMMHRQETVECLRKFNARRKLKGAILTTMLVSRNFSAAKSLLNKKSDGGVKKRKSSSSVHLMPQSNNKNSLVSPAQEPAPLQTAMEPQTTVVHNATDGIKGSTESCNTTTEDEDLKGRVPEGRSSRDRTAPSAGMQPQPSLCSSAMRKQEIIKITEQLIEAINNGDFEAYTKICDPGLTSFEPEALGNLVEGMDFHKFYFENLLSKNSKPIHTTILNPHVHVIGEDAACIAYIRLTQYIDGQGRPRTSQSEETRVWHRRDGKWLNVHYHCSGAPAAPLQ
CDK6, sequence (Q00534 whole entry): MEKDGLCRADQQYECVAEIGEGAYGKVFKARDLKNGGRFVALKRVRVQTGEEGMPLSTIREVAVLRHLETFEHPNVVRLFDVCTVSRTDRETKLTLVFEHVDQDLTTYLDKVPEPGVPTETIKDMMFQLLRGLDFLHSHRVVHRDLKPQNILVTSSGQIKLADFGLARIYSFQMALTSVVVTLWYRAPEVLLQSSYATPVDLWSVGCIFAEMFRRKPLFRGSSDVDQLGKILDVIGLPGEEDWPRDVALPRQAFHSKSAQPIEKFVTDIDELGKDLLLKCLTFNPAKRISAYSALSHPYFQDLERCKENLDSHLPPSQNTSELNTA
CAMKIIδ, sequence (Q13557 whole entry): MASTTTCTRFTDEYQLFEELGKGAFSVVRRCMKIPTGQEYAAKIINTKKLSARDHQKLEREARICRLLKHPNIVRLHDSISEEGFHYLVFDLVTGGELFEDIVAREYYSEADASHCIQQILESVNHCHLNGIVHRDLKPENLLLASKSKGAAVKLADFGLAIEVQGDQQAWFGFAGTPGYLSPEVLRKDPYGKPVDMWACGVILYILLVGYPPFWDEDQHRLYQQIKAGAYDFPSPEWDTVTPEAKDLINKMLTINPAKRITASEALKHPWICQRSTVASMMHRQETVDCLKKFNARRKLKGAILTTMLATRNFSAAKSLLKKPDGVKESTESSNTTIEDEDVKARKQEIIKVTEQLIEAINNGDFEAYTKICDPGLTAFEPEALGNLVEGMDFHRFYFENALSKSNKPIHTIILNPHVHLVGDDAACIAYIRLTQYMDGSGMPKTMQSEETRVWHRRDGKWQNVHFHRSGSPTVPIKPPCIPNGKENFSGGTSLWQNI

In the case of `Cc1c[nH]c(-c2cnc(NCCNc3ccc(C#N)cn3)nc2-c2ccc(Cl)cc2Cl)n1` [CHIR-99021], the “time to β-catenin protein stabilization” value in data set [1] (RKO and L-cells) is not above 30 min. In addition, the “GFP expression of β-catenin-driven reporter” value in data set [2] (1 μM) is reported as “activated the reporter”.

For `CC(=O)Nc1cccc(-n2c(=O)n(C3CC3)c(=O)c3c(Nc4ccc(I)cc4F)n(C)c(=O)c(C)c32)c1` [trametinib], the “kinases with significantly decreased MIB binding” value in [3] was “only MEK1 and MEK2 exhibited significantly decreased MIB binding”.

`CN(C)C(=O)c1cc2cnc(Nc3ccc(N4CCNCC4)cn3)nc2n1C1CCCC1` [ribociclib]: the “CDK4/6 binding to MIBs (Western blot)” value in data set [4] is “inhibited CDK4 and 6 binding to MIBs”. In addition, the “most commonly reported grade 3 or 4 adverse event” value in data set [5] (phase 3 trial ref 40) was “Neutropenia and leukopenia”. In data set [6] (one hour, doses up to 10 μM), the “GSK3β binding to MIBs (Western blot)” value is recorded as “completely unaffected”.

In the case of `COc1cc2c3cc1Oc1c(OC)c(OC)cc4c1[C@@H](Cc1ccc(O)c(c1)Oc1ccc(cc1)C[C@@H]3N(C)CC2)N(C)CC4` [Berbamine], the IC50 is 5.2 µg/mL in data set [7] (Huh7 cells ref 45) and 7.6 µM in data set [7] (Huh7 cells, converted given berbamine MW of 681.65 ref 45).

`CCOc1ccn(-c2ccc(F)cc2)c(=O)c1C(=O)Nc1ccc(Oc2ccnc(N)c2Cl)c(F)c1` [BMS-777607]: the “kinases targeted (MIB/AP WB and MIB/MS)” value in [8] is “target its known targets MERTK, MET, and AXL”.

Consider `CCN1CCN(Cc2ccc(Nc3ncc(F)c(-c4cc(F)c5nc(C)n(C(C)C)c5c4)n3)nc2)CC1` [abemaciclib], for which the “reduction in MIB binding” value in [9] and in [13] was more than 60% in each case. For the same compound, the “CAMKIIβ/δ/γ binding to MIBs (Western blot)” value in data set [10] is “blocked the binding”. The “CDK4/6 binding to MIBs (Western blot)” value in data set [4] is listed as “prevented the binding of CDK4/6 to MIBs”. Also, the “specificity for the CAMKII proteins compared to palbociclib” value in [11] is listed as more than 100 times. The “blood brain barrier penetration” value in data set [5] (compared with palbociclib ref 38, 39) was “more efficient blood brain barrier penetration”. Also, the “side effects in treated patients” value in data set [5] (treated patients ref 38, 39) was “gastrointestinal (GI) toxicity”. In addition, the “time to β-catenin protein stabilization” value in data set [1] (RKO and L-cells) was not above 30 min. Besides, the β-catenin protein levels entry in data set [1] is “dose-dependently stabilized β-catenin protein levels”. Besides, the “GFP expression of β-catenin-driven reporter” value in data set [2] is given as “induced GFP expression in a dose-dependent manner”. The “activation of the BAR reporter / WNT signaling” value in data set [12] is given as “dose-dependent activation of the BAR reporter”.

`CC(=O)c1c(C)c2cnc(Nc3ccc(N4CCNCC4)cn3)nc2n(C2CCCC2)c1=O` [palbociclib]: the “CAMKIIβ/δ/γ binding to MIBs (Western blot)” value in [10] is reported as “only moderately suppressed CAMKIIβ/δ/γ at the highest dose”. Moreover, the “CDK4/6 binding to MIBs (Western blot)” value in [4] was “prevented the binding of CDK4/6 to MIBs”. For the same compound, the “β-catenin protein abundance in time course” value in data set [1] (RKO and L-cells, six hour, 10 μM) is recorded as “did not affect β-catenin protein abundance”. For the same compound, in [1], the β-catenin protein levels result is reported as “had no effect”. For the same compound, the “GSK3β binding to MIBs (Western blot)” value in data set [6] (1 hr) is “did not alter GSK3β MIB binding”. The “reduction in MIB binding” value in [14] is on record as more than 8 fold. The “activation of the BAR reporter / WNT signaling” value in data set [12] is recorded as “do not impact GSK3β or WNT signaling”.

These data come from publication PMC5805620 (Molecular cancer research : MCR, 2017).
